Test results taken from patent publication US20050119263A1, “Treatment of breast cancer” (priority 2001, published 2005).

Test system: metastatic and/or recurrent breast cancer
Experiment: Phase III clinical trial, survival of patients treated with DPPE/doxorubicin versus doxorubicin alone
Assay type: in vivo, human
Procedure: In the treatment of metastatic and/or recurrent breast cancer, the diphenyl compound preferably is used in an amount of about 3 to about 10 mg/kg of patient administered intravenously over a period of about 30 to about 90 minutes prior to administration of the chemotherapeutic agent(s) and continuing for the period of administration of the chemotherapy agent(s). In the specific Phase III clinical trial described herein, there was employed 5.3 mg/kg of DPPE in the form of the base (equivalent to 6 mg/kg of DPPE in the form of its hydrochloride), administered intravenously as an aqueous solution thereof over 80 minutes, with the last twenty minutes being accompanied by infusion of the specific chemotherapeutic agent.
The anthracycline chemotherapy agent active in breast cancer which is employed herein preferably is used in a total amount of about 50 to about 75 mg/M^2 of patient consistent with the identity of the anthracycline chemotherapy agent(s). In the specific Phase III clinical trial described herein, there was employed 60 mg/M^2 of doxorubicin administered over the last 20 minutes of infusion of the DPPE solution. […]
The survival time of patients was determined in relation to ER status for patients receiving the DPPE/DOX combination and DOX alone. […]
In addition, the survival times of patients was determined in relation to disease-free intervals for patients receiving the DPPE/DOX combination and DOX alone.
The survival times of patients was determined in relation to the number of cycles of treatment for patients receiving the DPPE/DOX combination and DOX alone.
The survival time for patients also was determined for those patients with metastatic breast cancer receiving no prior chemotherapy treatment in relation to those also had received prior chemotherapy treatment and for patients that had received no previous treatment type (i.e. no prior chemotherapy, radiotherapy and/or hormone treatment). The survival times were determined for patients receiving the DPPE/DOX combination and DOX alone.

| SMILES | median overall survival (patients with metastatic disease who had no previous chemotherapy, DPPE 5.3 mg/kg iv over 80 min, doxorubicin 60 mg/M^2 over last 20 min) [months] | median overall survival (patients with metastatic disease who had no previous treatment (chemotherapy, radiotherapy and/or hormone treatment)) [months] | increase in overall survival compared to the control group (patients with aggressive breast cancer, pretreatment with DPPE before doxorubicin) |
| --- | --- | --- | --- |
| COc1cccc2c1C(=O)c1c(O)c3c(c(O)c1C2=O)C[C@@](O)(C(=O)CO)C[C@@H]3O[C@H]1C[C@H](N)[C@H](O)[C@H](C)O1 [DOX, doxorubicin] | 16.2 | 15 | – |
| CCN(CC)CCOc1ccc(Cc2ccccc2)cc1 [DPPE, N,N-diethyl-2-[4-(phenylmethyl)-phenoxy]ethanamine] | – | – | about 50% |
